From patent US20050267156A1, “Broadspectrum 2-amino-benzothiazole sulfonamide hiv protease inhibitors” (Tibotec Pharmaceuticals Ltd., priority 2002, published 2005)
Where two headings read alike, the source gives them in different places.

Tests used:
HIV-1 strain LAI = test: Cellular anti-HIV assay (MT4/MTT), wild type; format: cell-based; conditions: wild type HIV-1 strain LAI, MT4 cells; for EC50: Human immunodeficiency virus 1, read-out: WT (pEC50) (converted)
Experimental: The compounds of the present invention were examined for anti-viral activity in a cellular assay. […] The cellular assay was performed according to the following procedure. HIV- or mock-infected MT4 cells were incubated for five days in the presence of various concentrations of the inhibitor. […] Cell viability is measured by measuring the concentration of MTT, a yellow, water soluble tetrazolium dye that is converted to a purple, water insoluble formazan in the mitochondria of living cells only. Upon solubilization of the resulting formazan crystals with isopropanol, the absorbance of the solution is monitored at 540 nm. The values correlate directly to the number of living cells remaining in the culture at the completion of the five-day incubation. The inhibitory activity of the compound was monitored on the virus-infected cells and was expressed as EC50 and EC90. These values represent the amount of the compound required to protect 50% and 90%, respectively, of the cells from the cytopathogenic effect of the virus. […] The selectivity index (SI) (ratio CC50/EC50) is an indication of the selectivity of the anti-HIV activity of the inhibitor. Wherever results are reported as e.g. pEC50 or pCC50 values, the result is expressed as the negative logarithm of the result expressed as EC50 or CC50 respectively.

mutant HIV strain A = test: microbe, parasite or virus in culture; format: cell-based; conditions: for fold resistance Strain A: FR=EC50 (mutant strain)/EC50 (HIV-1 strain LAI); for EC50: Human immunodeficiency virus 1, MT4, read-out: pEC50 Strain A, mutant HIV strain A, MT4 cells (converted); for pEC50 Strain A: mutant HIV strain A, MT4 cells
Experimental: (§1) HIV- or mock-infected MT4 cells were incubated for five days in the presence of various concentrations of the inhibitor. […] Cell viability is measured by measuring the concentration of MTT, a yellow, water soluble tetrazolium dye that is converted to a purple, water insoluble formazan in the mitochondria of living cells only. Upon solubilization of the resulting formazan crystals with isopropanol, the absorbance of the solution is monitored at 540 nm. The values correlate directly to the number of living cells remaining in the culture at the completion of the five-day incubation. The inhibitory activity of the compound was monitored on the virus-infected cells and was expressed as EC50 and EC90. These values represent the amount of the compound required to protect 50% and 90%, respectively, of the cells from the cytopathogenic effect of the virus. […] The selectivity index (SI) (ratio CC50/EC50) is an indication of the selectivity of the anti-HIV activity of the inhibitor. Wherever results are reported as e.g. pEC50 or pCC50 values, the result is expressed as the negative logarithm of the result expressed as EC50 or CC50 respectively.

mutant HIV strain B = test: microbe, parasite or virus in culture; format: cell-based; conditions: for fold resistance Strain B: FR=EC50 (mutant strain)/EC50 (HIV-1 strain LAI); for EC50: Human immunodeficiency virus 1, MT4, read-out: pEC50 Strain B, mutant HIV strain B, MT4 cells (converted); for pEC50 Strain B: mutant HIV strain B, MT4 cells
Experimental: as §1

mutant HIV strain C = test: microbe, parasite or virus in culture; format: cell-based; conditions: for fold resistance Strain C: FR=EC50 (mutant strain)/EC50 (HIV-1 strain LAI); for EC50: Human immunodeficiency virus 1, MT4, read-out: pEC50 Strain C, mutant HIV strain C, MT4 cells (converted); for pEC50 Strain C: mutant HIV strain C, MT4 cells
Experimental: as §1

mutant HIV strain D = test: microbe, parasite or virus in culture; format: cell-based; conditions: for fold resistance Strain D: FR=EC50 (mutant strain)/EC50 (HIV-1 strain LAI); for EC50: Human immunodeficiency virus 1, MT4, read-out: pEC50 Strain D, mutant HIV strain D, MT4 cells (converted); for pEC50 Strain D: mutant HIV strain D, MT4 cells
Experimental: as §1

mutant HIV strain E = test: microbe, parasite or virus in culture; format: cell-based; conditions: for fold resistance Strain E: FR=EC50 (mutant strain)/EC50 (HIV-1 strain LAI); for EC50: Human immunodeficiency virus 1, MT4, read-out: pEC50 Strain E, mutant HIV strain E, MT4 cells (converted); for pEC50 Strain E: mutant HIV strain E, MT4 cells
Experimental: as §1

mutant HIV strain F = test: microbe, parasite or virus in culture; format: cell-based; conditions: for fold resistance Strain F: FR=EC50 (mutant strain)/EC50 (HIV-1 strain LAI); for EC50: Human immunodeficiency virus 1, MT4, read-out: pEC50 Strain F, mutant HIV strain F, MT4 cells (converted); for pEC50 Strain F: mutant HIV strain F, MT4 cells
Experimental: as §1

[1] = Toxicity on mock-infected cells (MTT); format: cell-based; conditions: human
Experimental: (§2) HIV- or mock-infected MT4 cells were incubated for five days in the presence of various concentrations of the inhibitor. At the end of the incubation period, the replicating virus in the control cultures has killed all HIV-infected cells in the absence of any inhibitor. Cell viability is measured by measuring the concentration of MTT, a yellow, water soluble tetrazolium dye that is converted to a purple, water insoluble formazan in the mitochondria of living cells only. Upon solubilization of the resulting formazan crystals with isopropanol, the absorbance of the solution is monitored at 540 nm. The values correlate directly to the number of living cells remaining in the culture at the completion of the five-day incubation. The inhibitory activity of the compound was monitored on the virus-infected cells and was expressed as EC50 and EC90. These values represent the amount of the compound required to protect 50% and 90%, respectively, of the cells from the cytopathogenic effect of the virus. […] The selectivity index (SI) (ratio CC50/EC50) is an indication of the selectivity of the anti-HIV activity of the inhibitor. Wherever results are reported as e.g. pEC50 or pCC50 values, the result is expressed as the negative logarithm of the result expressed as EC50 or CC50 respectively.

Pharmacokinetics in rats = format: in vivo, Whistar rats; conditions: rat
Experimental: The pharmacokinetic properties of some compounds of formula (I) were tested on rats and dogs. The compounds were evaluated in Whistar rats, source Iffa Credo, weighing approximately 350 g. Before dosing the animals were fasted overnight (approximately 12 h fasting period). The compounds were dissolved in DMSO or PEG 400. The results represented in the table concern the results from the oral or intra-peritoneal dosing of the compounds. Blood was sampled at 30 min, 1 h, 2 h, 3 h, no pre-dose sample was taken. The amount of the compound in the biological sample was determined using LC-MS. In the table below “or” means oral dosing, “ip” means intraperitoneal dosing, “mpk” means mg per kilogram.

mock-infected MT4 cells = test: Toxicity on mock-infected cells (MTT); format: cell-based
Experimental: as §2

[2] = Whistar, blood, ip, 10 mpk, ip, DMSO, results normalized to 10 mpk, read-out: Cmax
[3] = Whistar, blood, po, 10 mpk, or, PEG400, results normalized to 10 mpk, read-out: Cmax

Row | Molecule | EC50 (HIV-1 strain LAI) [nM] | fold resistance Strain A (mutant HIV strain A) | EC50 (mutant HIV strain A) [nM] | fold resistance Strain B (mutant HIV strain B) | EC50 (mutant HIV strain B) [nM] | fold resistance Strain C (mutant HIV strain C) | EC50 (mutant HIV strain C) [nM] | fold resistance Strain D (mutant HIV strain D) | EC50 (mutant HIV strain D) [nM] | fold resistance Strain E (mutant HIV strain E) | EC50 (mutant HIV strain E) [nM] | fold resistance Strain F (mutant HIV strain F) | EC50 (mutant HIV strain F) [nM] | CC50 at 5 days [1] [nM] | Cmax (Pharmacokinetics in rats; [2]) [ng/mL] | WT (pEC50) (HIV-1 strain LAI) | pEC50 Strain A (mutant HIV strain A) | pEC50 Strain B (mutant HIV strain B) | pEC50 Strain C (mutant HIV strain C) | pEC50 Strain F (mutant HIV strain F) | further results
1 | CNc1nc2ccc(S(=O)(=O)N(CC(C)C)C[C@@H](O)[C@H](Cc3ccccc3)NC(=O)COc3c(C)cccc3C)cc2s1 [Compound 15, N-{(1S,2R)-1-benzyl-2-hydroxy-3-[isobutyl-(2-methylamino-benzothiazole-6-sulfonyl)-amino]-propyl}-2-(2,6-dimethyl-phenoxy)-acetamide] | 11.2 | 4.6 | 51.3 | 2.6 | 28.8 | 3.5 | 39.8 | 4.5 | 50.1 | 3.2 | 36.3 | 20.4 | 229 | 91200 | 86 |  |  |  |  |  | Cmax (Pharmacokinetics in rats; [3]): 10 ng/mL
2 | CNc1nc2ccc(S(=O)(=O)N(CC(C)C)C[C@@H](O)[C@H](Cc3ccccc3)NC(=O)O[C@H]3CCOC3)cc2s1.O=C(O)C(F)(F)F [Compound 22, {(1S,2R)-1-benzyl-2-hydroxy-3-[isobutyl-(2-methylamino-benzothiazole-6-sulfonyl)-amino]-propyl}-carbamic acid(S)(tetrahydro-furan-3-yl)ester trifluoroacetate] |  | 81.3 |  | 10.2 |  | 4.5 |  | 11.5 |  | 3.0 |  | 549.5 |  |  |  | 8.84 | 6.93 | 7.83 | 8.19 | 6.1 | pEC50 Strain D (mutant HIV strain D): 7.78; pEC50 Strain E (mutant HIV strain E): 8.36; Tox (pCC50) (mock-infected MT4 cells): <4
3 | CNc1nc2ccc(S(=O)(=O)N(CC(C)C)C[C@@H](O)[C@H](Cc3ccccc3)NC(=O)O[C@H]3CO[C@H]4OCC[C@H]43)cc2s1 [Compound 5, {(1S,2R)-1-benzyl-2-hydroxy-3-[isobutyl-(2-methylamino-benzothiazole-6-sulfonyl)-amino]-propyl}-carbamic acid(3R,3aS,6aR)-(hexahydro-furo[2,3-b]furan-3-yl)ester] |  | 0.8 |  | 0.5 |  | 0.4 |  |  |  |  |  | 3.5 |  |  |  | 9.26 | 9.37 | 9.57 | 9.71 | 8.71 | Tox (pCC50) (mock-infected MT4 cells): 4.15
4 | {(1S,2R)-3-[(2-amino-benzothiazole-6-sulfonyl)-isobutyl-amino]-1-benzyl-2-hydroxypropyl}-carbamic acid(3R,3aS,6aR)-hexahydro-furo[2,3-b]furan-3-yl ester [Compound 2] |  | 0.3 |  | 0.4 |  | 0.4 |  | 0.3 |  | 0.5 |  | 0.5 |  |  |  | 8.18 | 8.68 | 8.59 | 8.54 | 8.45 | pEC50 Strain D (mutant HIV strain D): 8.69; pEC50 Strain E (mutant HIV strain E): 8.50; Tox (pCC50) (mock-infected MT4 cells; mock-infected MT4 cells, pCC50): 4.07; Cmax (Pharmacokinetics in rats; ip, DMSO, results normalized to 10 mpk): 427 ng/mL; Cmax (Pharmacokinetics in rats; or, PEG400, results normalized to 10 mpk): 52 ng/mL
5 | CNc1nc2ccc(S(=O)(=O)N(CC(C)C)C[C@@H](O)[C@H](Cc3ccccc3)NC(=O)COc3c(C)cc(CN)cc3C)cc2s1 [Compound 25, 2-(4-aminomethyl-2,6-dimethyl-phenoxy)-N-{(1S,2R)-1-benzyl-2-hydroxy-3-[isobutyl-(2-methylamino-benzothiazole-6-sulfonyl)-amino]-propyl}-acetamide] | 4.07 | 10.7 | 43.7 | 4.9 | 20 | 4.4 | 17.8 | 10.0 | 40.7 | 4.3 | 17.4 | 117.5 | 479 | 14100 | 453 |  |  |  |  |  | 
6 | CC(C)CN(C[C@@H](O)[C@H](Cc1ccccc1)NC(=O)O[C@H]1CCOC1)S(=O)(=O)c1ccc2nc(N)sc2c1 [Compound 13, {(1S,2R)-3-[(2-amino-benzothiazole-6-sulfonyl)-isobutyl-amino]-1-benzyl-2-hydroxypropyl}-carbamic acid(S) (tetrahydro-furan-3-yl)ester] |  | 13.5 |  | 1.9 |  | 1.3 |  | 2.5 |  | 0.9 |  | 34.7 |  |  |  | 8.52 | 7.39 | 8.24 | 8.42 | 6.98 | pEC50 Strain D (mutant HIV strain D): 8.13; pEC50 Strain E (mutant HIV strain E): 8.57; Tox (pCC50) (mock-infected MT4 cells): <4
7 | CNc1nc2ccc(S(=O)(=O)N(CC(C)C)C[C@@H](O)[C@H](Cc3ccccc3)NC(=O)OC3COC4OCCC34)cc2s1 (stereo partly drawn) [Compound 4, {(1S,2R)-1-benzyl-2-hydroxy-3-[isobutyl-(2-methylamino-benzothiazole-6-sulfonyl)-amino]-propyl}-carbamic acid hexahydro-furo[2,3-b]furan-3-yl ester] | 0.457 | 7.9 | 3.63 | 2.6 | 1.17 | 2.6 | 1.17 | 2.6 | 1.17 | 2.8 | 1.29 | 19.1 | 8.71 | > 10000 | 1670 |  |  |  |  |  | Cmax (Pharmacokinetics in rats; Whistar, blood, po, 10 mpk, or, DMSO, results normalized to 10 mpk, read-out: Cmax): 348 ng/mL; Cmax (Pharmacokinetics in rats; [3]): 225 ng/mL
